From paper PMC5835975, “[^64Cu]NOTA-pentixather enables high resolution PET imaging of CXCR4 expression in a preclinical lymphoma model” (EJNMMI Radiopharmacy and Chemistry, 2017)
Read-outs that look alike come from different tables or passages of the source. Where a SMILES comes first, the peptide text is derived from it. Side-chain parts run from the residue outwards. [ ]: non-standard residue; d: D form. The star is where a group is joined. NODAGA = O=C(O)CN1CCN(CC(=O)O)CCN(C(CCC(=O)*)C(=O)O)CC1; NOTA = O=C(O)CN1CCN(CC(=O)O)CCN(CC(=O)*)CC1; dTyr(3-I) = N[C@H](Cc1ccc(O)c(I)c1)C(=O)O; 2Nal = N[C@@H](Cc1ccc2ccccc2c1)C(=O)O; dNMeOrn = CN[C@H](CCCN)C(=O)O; 4Amb = NCc1ccc(C(=O)O)cc1

Tests used:
[1] = molecular target: T1, human CXCR4 (Homo sapiens, UniProt P61073); experiment: Competitive binding assay on Jurkat T-cell leukemia cells with [^125I]FC131 as radioligand; settings: Jurkat cells 400.000 cells/sample, [^125I]FC131 radioligand, mean ± SD, min. three determinations
T1 construct: CXCR4-expressing Jurkat T-lymphocytes (4 × 10^5 cells per sample); endogenous in cells; host or cells: Jurkat T-cell leukemia cells
T1 sequence (P61073 whole entry): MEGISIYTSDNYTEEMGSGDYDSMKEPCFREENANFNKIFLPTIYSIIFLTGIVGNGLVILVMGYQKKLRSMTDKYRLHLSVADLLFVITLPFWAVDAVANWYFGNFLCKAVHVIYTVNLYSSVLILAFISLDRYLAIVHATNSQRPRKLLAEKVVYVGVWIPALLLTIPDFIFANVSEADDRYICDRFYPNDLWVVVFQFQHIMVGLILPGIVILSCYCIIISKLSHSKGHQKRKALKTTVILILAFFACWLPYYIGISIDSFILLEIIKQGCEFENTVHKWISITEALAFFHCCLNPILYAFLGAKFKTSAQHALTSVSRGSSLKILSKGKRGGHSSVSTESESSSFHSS
Method: The CXCR4 affinities of [^natCu]NOTA- and [^natCu]NODAGA-pentixather as well as of the corresponding metal free chelator-conjugated peptides were determined in a competitive binding assay using standard conditions (CXCR4-expressing Jurkat T-lymphocytes (4 × 10^5 cells per sample) and [^125I]FC131 as the radioligand (Poschenrieder et al. [2016a]; Wester et al. [2015]; Schottelius et al. [2015]; Poschenrieder et al. [2016b])) (Table 1). Data for [^natGa]pentixafor and FC131 are included as a reference. As already observed for [^natGa]pentixafor, metal complexation leads to enhanced CXCR4 affinity, both for [^natCu]NOTA-pentixather and for [^natCu]NODAGA-pentixather.
CXCR4 affinities were determined using Jurkat T-cell leukemia cells and [^125I]FC131 as the radioligand (Poschenrieder et al. [2016b]). Briefly, cells (4 × 10^5 cells per vial) were incubated with app. 0.1 nM of [^125I]FC131 in the presence of varying concentrations (10^−11 to 10^−5 M) of the respective peptide of interest (n = 3 samples/concentration) for 120 min at RT. After centrifugation and repeated washing steps, the amount of free and bound radioligand were quantified for each sample using a γ-counter, and IC50 values were calculated using GraphPad Prism 6.01 software.

[2] = format: physicochemical; settings: pH 7.4
Method: The lipophilicity and serum stability of [^64Cu]NOTA-pentixather were determined as described previously (Poschenrieder et al. [2016a]). Briefly, to a solution of app. 2 kBq of radiolabelled peptide in 500 μL of PBS (pH 7.4), 500 μL of octanol were added (n = 6). Vials were vortexed vigorously for 3 min. To achieve quantitative phase separation, the vials were centrifuged at 14,600 · g for 6 min in a Biofuge 15 (Heraeus Sepatech, Osterode, Germany). The activity concentrations in 100 μL samples of both the aqueous and the organic phase were measured in a gamma counter, and the log Pow was calculated.

[3] = format: physicochemical; settings: buffer, 24 h, pH 2.5
Method: To investigate the in vitro stability of [^64Cu]NOTA-pentixather, the tracer was incubated both in human serum at 37 °C and in 0.1 M EDTA at pH = 2.5 and physiological pH (7.4) at RT for different time points up to 24 h (Fig. 7). [^64Cu]NOTA-pentixather remained stable over 24 h in human serum (>99% intact ^64Cu-chelate).
Fig. 7 In vitro stability of [^64Cu]NOTA-pentixather as a function of incubation time.
For challenging experiments, 4 MBq of [^64Cu]NOTA-pentixather were incubated in 0.1 M EDTA at different pH values (2.5 and 7.4) for a minimum of 24 h. At specific time points, samples were analyzed via radio-TLC using silica gel impregnated chromatography paper (Agilent Technologies, CA, USA) and 0.1 M phosphate buffer (pH = 7.4) containing 10 mM sodium EDTA as the mobile phase.

[4] = set-up: species or system mice; settings: mouse, in vivo, iv
Method: (§1) Biodistribution data of [^64Cu]NOTA-pentixather at 1.5 h p.i. (n = 5, black bars) and 24 h p.i. Given the fact that Jurkat cells, which are generally used for the determination of CXCR4 affinity, are not tumorigenic in mice and to ensure comparability of data with previous studies (Poschenrieder et al. [2016a]; Wester et al. [2015]; Schottelius et al. [2015]), the Daudi lymphoma model was also used in this study. […] While the tumor-to-background ratios for most tissues remain unchanged or decrease within the observation period, t/blood and t/intestine ratios increase 1.3 and 2.4 fold between 1.5 and 24 h p.i., respectively.
(§2) Fig. 3 Biodistribution of [^64Cu]NOTA-pentixather at 1.5 h (tracer only, black bars, n = 5) and 24 h p.i. (grey bars, n = 6) in Daudi xenograft-bearing CB-17 SCID mice. Mice were injected with 5.2 MBq [^64Cu]NOTA-pentixather (122 pmol/0.160 μg peptide; AS = 43 GBq/μmol). Non-specific tracer accumulation was determined by coinjection of 2 mg/kg AMD3100 (50 μg/mouse; white bars, n = 3)
(§3) For PET and biodistribution studies, an average of 5.2 MBq [^64Cu]NOTA-pentixather (200 μL in PBS, 122 pmol, 160 ng) with a SA of 43 GBq/μmol was injected intravenously into the tail vein of isofluorane anaesthesized female Daudi (human B-cell lymphoma) xenograft bearing CB17 SCID mice. […] PET imaging with [^64Cu]NOTA-pentixather under ‘tracer only’ (n = 2) as well as blocking conditions (coinjection of 2 mg/kg AMD3100, n = 1) was performed at three different time points (dynamic PET imaging for 1 h, followed by static image acquisition for 15 min after 3.5 and 24 h) using an Inveon Siemens μPET scanner. PET/CT images were reconstructed by a two-dimensional ordered subset expectation maximum (2D-OSEM) algorithm with no attenuation correction. Image analysis was performed using the Inveon software, and results were calculated as %ID/g. For biodistribution studies, the mice were sacrificed at 1.5 h (n = 5) and 24 h (n = 6) p.i., tissues and organs of interest were dissected, weighed, and counted for radioactivity in a γ-counter. The percentage of injected dose per gram of tissue (% ID/g) was calculated; data are presented as mean ± SD.

[5] = test system: Daudi xenograft-bearing CB-17 SCID mice; settings: mouse, in vivo
Method: as §1, §2, §3

CN1C(=O)[C@@H](Cc2ccc(O)c(I)c2)NC(=O)CNC(=O)[C@H](Cc2ccc3ccccc3c2)NC(=O)[C@H](CCCNC(=N)N)NC(=O)[C@H]1CCCNC(=O)c1ccc(CNC(=O)CCC(C(=O)O)N2CCN(CC(=O)O)CCN(CC(=O)O)CC2)cc1 (stereo partly shown) [NODAGA-pentixather] (cyclo([2Nal]G[dTyr(3-I)][dNMeOrn]([4Amb-NODAGA])R))
IC50 [1]: 64.9 ± 6.5 nM

CN1C(=O)[C@@H](Cc2ccc(O)c(I)c2)NC(=O)CNC(=O)[C@H](Cc2ccc3ccccc3c2)NC(=O)[C@H](CCCNC(=N)N)NC(=O)[C@H]1CCCNC(=O)c1ccc(CNC(=O)CN2CCN(CC(=O)O)CCN(CC(=O)O)CC2)cc1 [[^64Cu]NOTA-pentixather, metal not drawn] (cyclo([dTyr(3-I)][dNMeOrn]([4Amb-NOTA])R[2Nal]G))
logP [2]: -1.2 | tracer remaining intact [3]: over 90% | tissue uptake at 1.5 h ([4]; Tumor uptake): 13.1 ± 1.5 %ID/g | tissue uptake at 1.5 h ([4]; accumulation in the intestines): 5 ± 2.8 %ID/g | tissue uptake at 1.5 h ([4]; accumulation in the liver): 7.2 ± 1.1 %ID/g | tissue uptake at 1.5 h ([4]; activity accumulation in the kidney): 3.8 ± 0.5 %ID/g | tissue uptake at 1.5 h ([4]; activity in blood): 1.1 ± 0.2 %ID/g | increase of t/blood ratio [5]: 1.3 fold | increase of t/intestine ratio [5]: 2.4 fold
